# Experiments:
# [1] = system: S. pneumoniae (13) clinical isolates; test: Susceptibility of clinical isolates (MIC); type: cell-based, Streptococcus pneumoniae; conditions: for Cumulative % of strains inhibited at MIC / No. of strains inhibited at MIC: S. pneumoniae (13)
# Method: (§1) Susceptibility testing of oxazolidinone-fluoroquinolone hybrids against various bacteria was performed by the broth microdilution method as outlined by the Clinical and Laboratory Standards Institute (CLSI). Three types of media, including cation-adjusted Mueller Hinton broth, Haemophilus Test Medium and cation-adjusted Mueller Hinton broth that contained 3%–5% lysed horse blood, were used to culture the corresponding bacteria. […] A final inoculum of 5 × 10^5 CFU/mL was used and plates were read after incubation for 16–24 h at 35 °C. […] Standard quality control strains (ATCC) were included throughout. Each determination was repeated in triplicate.
# [2] = system: S. aureus (46) clinical isolates; test: Susceptibility of clinical isolates (MIC); type: cell-based, Staphylococcus aureus; conditions: for Cumulative % of strains inhibited at MIC / No. of strains inhibited at MIC: S. aureus (46)
# Method: as §1
# [3] = system: E. faecalis (72) clinical isolates; test: Susceptibility of clinical isolates (MIC); type: cell-based, Enterococcus faecalis; conditions: for Cumulative % of strains inhibited at MIC / No. of strains inhibited at MIC: E. faecalis (72)
# Method: as §1
# [4] = system: S. haemolyticus (32) clinical isolates; test: Susceptibility of clinical isolates (MIC); type: cell-based, Staphylococcus haemolyticus; conditions: for Cumulative % of strains inhibited at MIC / No. of strains inhibited at MIC: S. haemolyticus (32)
# Method: as §1
# Female Kunming mice = test: Acute oral toxicity, limit test (OECD 425); type: in vivo; conditions: single oral dose 2000 mg/kg, 14 d observation
# Method: (§2) Female Kunming mice (SPF grade, 18–22 g) were obtained from laboratory animal center of Lanzhou Veterinary Research Institute (Lanzhou, China). Mice were maintained under the standard conditions of 12 h light/dark cycle, room temperate (22 ± 3 °C), 50–60% relative humidity. They were fed normally with an unlimited supply of feed and water for seven days and deprived of food but not water for 4 h prior to the experiment. The toxicity test was supported by the Animal Ethics Committee of Lanzhou Institute of Husbandry and Pharmaceutical Sciences.
# (§3) The acute toxicity of hybrids OBP-4 and OBP-5 was conducted by the limit test described in the OECD guideline 425 [39]. The mice were divided randomly into two groups, five animals in each group. One group of mice received a single oral dose of hybrids OBP-4 or OBP-5 at 2000 mg/kg·bw, and the other group of mice was given the equal volume of 0.5% CMC-Na solution (0.1 mL/10 g of body weight). Food was restored until 4 h after administration. The observation of each animal occurred according to the OECD guideline 425 [27], meaning continuously during the first 30 min, periodically during the next 24 h, and then daily thereafter until 14 d after dosing. The weight changes and mortality were calculated and recorded. The mice that survived were humanely killed at the end of the experiment.
# [5] = Acute oral toxicity, limit test (OECD 425); type: in vivo; conditions: female, Kunming, mouse, in vivo, 2000 mg/kg·bw; mice, single oral dose, limit test 2000 mg/kg, 14 d observation
# Method: as §2, §3
# [6] = system: S. suis (9) clinical isolates; test: Susceptibility of clinical isolates (MIC); type: cell-based, Streptococcus suis; conditions: for Cumulative % of strains inhibited at MIC / No. of strains inhibited at MIC: S. suis (9)
# Method: as §1
# [7] = system: H. parasuis (34) clinical isolates; test: Susceptibility of clinical isolates (MIC); type: cell-based, Haemophilus parasuis; conditions: for Cumulative % of strains inhibited at MIC / No. of strains inhibited at MIC: H. parasuis (34)
# Method: as §1
# Gram-positive isolates = test: MIC summary, clinical isolates; type: cell-based; conditions: Gram-positive clinical isolates; read-out: MIC90 values for Gram-positive isolates (span over species)
# From the text: (§4) 6 standard strains and 3 clinical isolates were used to the preliminary evaluation of in vitro antibacterial activities of oxazolidinone-fluoroquinolone hybrids. For the further evaluation of hybrids OBP-4 and OBP-5, 263 clinical isolates including S. aureus (46), S. haemolyticus(32), S. epidermidis (10), E. faecalis (72), E. faecium (47), S. pneumoniae (13), H. parasuis (34), S. suis (9), and 8 resistant strains including MRSA, MRSE, CIP-resistant S. aureus and S. haemolyticus, VAN and quinolone-resistant S. pneumoniae, LZD-resistant E. faecalis, LZD/VAN and quinolone-resistant E. faecium were collected and tested.
# (§5) Susceptibility testing of oxazolidinone-fluoroquinolone hybrids against various bacteria was performed by the broth microdilution method as outlined by the Clinical and Laboratory Standards Institute (CLSI). Three types of media, including cation-adjusted Mueller Hinton broth, Haemophilus Test Medium and cation-adjusted Mueller Hinton broth that contained 3%–5% lysed horse blood, were used to culture the corresponding bacteria. All compounds including comparator drugs were dissolved in an appropriate solvent at a concentration of 2.048 mg/mL and then serially diluted two-fold to provide the required concentrations. A final inoculum of 5 × 10^5 CFU/mL was used and plates were read after incubation for 16–24 h at 35 °C. […] Standard quality control strains (ATCC) were included throughout. Each determination was repeated in triplicate.
# Gram-positive bacteria = test: MIC summary, Gram-positive bacteria of the preliminary panel; type: cell-based; conditions: read-out: MICs against Gram-positive bacteria
# From the text: as §4
# Susceptibility testing of oxazolidinone-fluoroquinolone hybrids against various bacteria was performed by the broth microdilution method as outlined by the Clinical and Laboratory Standards Institute (CLSI). Three types of media, including cation-adjusted Mueller Hinton broth, Haemophilus Test Medium and cation-adjusted Mueller Hinton broth that contained 3%–5% lysed horse blood, were used to culture the corresponding bacteria. All compounds including comparator drugs were dissolved in an appropriate solvent at a concentration of 2.048 mg/mL and then serially diluted two-fold to provide the required concentrations. A final inoculum of 5 × 10^5 CFU/mL was used and plates were read after incubation for 16–24 h at 35 °C. […]
# MRSA (13B262) = test: MIC, broth microdilution (CLSI), clinical isolate; type: cell-based; conditions: Staphylococcus aureus
# From the text: as §4, §5
# [8] = system: S. agalactiae^R (13B317), levofloxacin-resistant S. agalactiae; test: MIC, broth microdilution (CLSI), clinical isolate; type: cell-based; conditions: Streptococcus agalactiae; levofloxacin-resistant S. agalactiae (13B317)
# From the text: as §4, §5
# [9] = Enterococcus faecalis, E. faecalis, 72 clinical isolates
smiles,measurement,setting,value
C[C@H]1CCc2c(N3CCC(O)(COc4ccc(N5C[C@H](CO)OC5=O)cc4F)CC3)c(F)cc3c(=O)c(C(=O)O)cn1c23 [OBP-4],Cumulative % of strains inhibited at MIC,[1]; MIC 0.125 µg/mL,38.5%
same,No. of strains inhibited at MIC,[1]; MIC 0.125 µg/mL,3
same,Cumulative % of strains inhibited at MIC,[1]; MIC 0.5 µg/mL,100.0%
same,No. of strains inhibited at MIC,[1]; MIC 0.5 µg/mL,1
same,Cumulative % of strains inhibited at MIC,[1]; MIC […],92.3%
same,No. of strains inhibited at MIC,[1]; MIC […],7
same,Cumulative % of strains inhibited at MIC,[1]; MIC ≤[…],15.4%
same,No. of strains inhibited at MIC,[1]; MIC ≤[…],2
same,MIC Range,"[1]; S. pneumoniae, 13 clinical isolates",≤0.0625 to 0.5 µg/mL
same,MIC50,"[1]; Streptococcus pneumoniae, S. pneumoniae, 13 clinical isolates, read-out: MIC50",0.25 µg/mL
same,MIC90,"[1]; Streptococcus pneumoniae, S. pneumoniae, 13 clinical isolates, read-out: MIC90",0.25 µg/mL
same,Cumulative % of strains inhibited at MIC,[2]; MIC 0.125 µg/mL,93.5%
same,No. of strains inhibited at MIC,[2]; MIC 0.125 µg/mL,17
same,Cumulative % of strains inhibited at MIC,[2]; MIC […],100.0%
same,No. of strains inhibited at MIC,[2]; MIC […],3
same,Cumulative % of strains inhibited at MIC,[2]; MIC ≤[…],56.5%
same,No. of strains inhibited at MIC,[2]; MIC ≤[…],26
same,MIC50,"[2]; Staphylococcus aureus, S. aureus, 46 clinical isolates, read-out: MIC50",≤ 0.0625 µg/mL
same,MIC90,"[2]; Staphylococcus aureus, S. aureus, 46 clinical isolates, read-out: MIC90",0.125 µg/mL
same,MIC,"[2]; Staphylococcus aureus, S. aureus, 46 clinical isolates, read-out: MIC Range",0.0625 to 0.25 µg/mL
same,Cumulative % of strains inhibited at MIC,[3]; MIC 0.125 µg/mL,36.1%
same,No. of strains inhibited at MIC,[3]; MIC 0.125 µg/mL,17
same,Cumulative % of strains inhibited at MIC,[3]; MIC 0.5 µg/mL,98.6%
same,No. of strains inhibited at MIC,[3]; MIC 0.5 µg/mL,2
same,Cumulative % of strains inhibited at MIC,[3]; MIC 1 µg/mL,100.0%
same,No. of strains inhibited at MIC,[3]; MIC 1 µg/mL,1
same,Cumulative % of strains inhibited at MIC,[3]; MIC […],95.8%
same,No. of strains inhibited at MIC,[3]; MIC […],43
same,Cumulative % of strains inhibited at MIC,[3]; MIC ≤[…],12.5%
same,No. of strains inhibited at MIC,[3]; MIC ≤[…],9
same,fold higher activity than comparator agents,[3]; E. faecalis clinical isolates,2- to 16 fold
same,MIC Range,"[3]; E. faecalis, 72 clinical isolates",≤0.0625 to 1 µg/mL
same,MIC50,[3]; [9],0.25 µg/mL
same,MIC90,[3]; [9],0.25 µg/mL
same,Cumulative % of strains inhibited at MIC,[4]; MIC 0.125 µg/mL,93.8%
same,No. of strains inhibited at MIC,[4]; MIC 0.125 µg/mL,16
same,Cumulative % of strains inhibited at MIC,[4]; MIC 0.5 µg/mL,100.0%
same,No. of strains inhibited at MIC,[4]; MIC 0.5 µg/mL,2
same,Cumulative % of strains inhibited at MIC,[4]; MIC ≤[…],43.8%
same,No. of strains inhibited at MIC,[4]; MIC ≤[…],14
same,MIC50,"[4]; Staphylococcus haemolyticus, S. haemolyticus, 32 clinical isolates, read-out: MIC50",0.125 µg/mL
same,MIC90,"[4]; Staphylococcus haemolyticus, S. haemolyticus, 32 clinical isolates, read-out: MIC90",0.125 µg/mL
same,MIC,"[4]; Staphylococcus haemolyticus, S. haemolyticus, 32 clinical isolates, read-out: MIC Range",0.0625 to 0.5 µg/mL
same,death and toxicity signs,Female Kunming mice,No death and any toxicity signs were observed
same,LD50 at 14 d,[5],> 2000 mg/kg
same,Cumulative % of strains inhibited at MIC,[6]; MIC 0.125 µg/mL,77.8%
same,No. of strains inhibited at MIC,[6]; MIC 0.125 µg/mL,2
same,Cumulative % of strains inhibited at MIC,[6]; MIC 2 µg/mL,100%
same,No. of strains inhibited at MIC,[6]; MIC 2 µg/mL,1
same,Cumulative % of strains inhibited at MIC,[6]; MIC […],88.9%
same,No. of strains inhibited at MIC,[6]; MIC […],1
same,Cumulative % of strains inhibited at MIC,[6]; MIC ≤[…],55.6%
same,No. of strains inhibited at MIC,[6]; MIC ≤[…],5
same,MIC50,"[6]; Streptococcus suis, S. suis, 9 clinical isolates, read-out: MIC50",≤ 0.0625 µg/mL
same,MIC90,"[6]; Streptococcus suis, S. suis, 9 clinical isolates, read-out: MIC90",0.25 µg/mL
same,MIC,"[6]; Streptococcus suis, S. suis, 9 clinical isolates, read-out: MIC Range",0.0625 to 2 µg/mL
same,MIC50,"[7]; Glaesserella parasuis, H. parasuis, 34 clinical isolates, read-out: MIC50",1 µg/mL
same,MIC90,"[7]; Glaesserella parasuis, H. parasuis, 34 clinical isolates, read-out: MIC90",4 µg/mL
same,Cumulative % of strains inhibited at MIC,[7]; MIC 0.5 µg/mL,35.3%
same,No. of strains inhibited at MIC,[7]; MIC 0.5 µg/mL,5
same,Cumulative % of strains inhibited at MIC,[7]; MIC 1 µg/mL,61.8%
same,No. of strains inhibited at MIC,[7]; MIC 1 µg/mL,9
same,Cumulative % of strains inhibited at MIC,[7]; MIC 2 µg/mL,79.4%
same,No. of strains inhibited at MIC,[7]; MIC 2 µg/mL,6
same,Cumulative % of strains inhibited at MIC,[7]; MIC 4 µg/mL,100.0%
same,No. of strains inhibited at MIC,[7]; MIC 4 µg/mL,7
same,Cumulative % of strains inhibited at MIC,[7]; MIC […],20.6%
same,No. of strains inhibited at MIC,[7]; MIC […],3
same,Cumulative % of strains inhibited at MIC,[7]; MIC ≤[…],11.8%
same,No. of strains inhibited at MIC,[7]; MIC ≤[…],4
same,MIC Range,"[7]; H. parasuis, 34 clinical isolates",≤0.0625 to 4 µg/mL
same,MIC90,Gram-positive isolates,0.125 to 0.25 µg/mL
same,MIC,Gram-positive bacteria,≤ 0.5 µg/mL
same,MIC,MRSA (13B262),0.5 µg/mL
same,MIC,[8],0.031 µg/mL
